Data published in patent publication US20160339099A1, “SYNERGISTIC COMBINATION OF ANALGESIC DRUGS” (priority 2013, published 2016).

What was measured:
[1] = system: Nav1.7 loss of function pain-free; assay: Tactile sensitivity under naloxone; type: in vivo, human; conditions: baseline, saline and naloxone conditions
healthy human controls = assay: Radiant heat stimuli under naloxone in healthy controls; type: in vivo; conditions: healthy patients
Method: (§1) We evaluated the probability of detecting 9-ms radiant heat pulses in a Nav1.7 null mutant human patient and in three age-matched, healthy human controls. Radiant heat was used to selectively stimulate intra-epidermal free-nerve endings, without touch. The results are depicted in FIG. 11A.
(§2) Tonic radiant heat was administered over 25 seconds, while the participants rated online the intensity of the heat on a visual analogue scale. The results are depicted in FIG. 11B.

Nav1.7 null mutant human [2] = assay: Human processing of tonic radiant heat under naloxone (ratings, EEG); type: in vivo
Method: (§3) A Nav1.7 loss of function pain-free […] ([…]) was tested under baseline, saline, and naloxone (6 mg) bolus and 0.1 mg/minute infusion treatment. The forearm was stimulated with radiant heat (CO2 lasers).
We delivered tonic stimuli, at the constant temperature of 42, 45, and 48° C. for 20 sec. ML rated online fluctuations in perceived intensity on a visual analog scale. Identical stimuli were rated higher after administration of naloxone in comparison to both the baseline and saline conditions.
Furthermore, we measured the electroencephalogram (EEG) responses induced by tonic radiant heat stimulation: in other words, we looked at the effect of the nociceptive stimulation on brain rhythms.
as §2

Nav1.7 null mutant human [3] = assay: Human processing of phasic radiant heat (laser pulses) under naloxone; type: in vivo
Method: as §3
Laser pulses of the same energy (fluency 0.6 j/mm^2) were given to the forearm. The energy used typically evokes a sensation of sharp pinprick pain in healthy volunteers. […] However, naloxone enhanced the detection rate of laser pulses to 80%. ML felt 37.5% of the detected stimuli as pinprick, while the other sensations were described as a slow heat, or warmth. Ratings were low (mean 6.1, range 0.5-15) in a perceived intensity scale ranging from 0-100.
as §1

[4] = system: Nav1.7 loss of function pain-free; assay: Human radiant heat detection thresholds (warmth, pinprick) under naloxone; type: in vivo; conditions: naloxone 6 mg bolus and 0.1 mg/minute infusion
Method: as §3
Warmth threshold reflects activation of unmyelinated C-fibres, while pinprick threshold is mediated by small-myelinated A-delta fibres (LaMotte et al 1978). Detection thresholds were assessed by slowly increasing the temperature of the stimulus (rate 1 deg/sec), after a neutral baseline of variable length (5-10 seconds). The participant was asked to press a button, to stop the stimulus as soon it was detected as warm or pinprick. At baseline, ML perceived only 1 of the 6 stimulus ramps. All the stimuli were detected in the subsequent saline and naloxone sessions.

normal mice = assay: Hargreaves test after naloxone in normal mice; type: in vivo; conditions: 2 mg/kg naloxone intraperitoneal
Method: (§4) Thermal nociceptive thresholds were measured using the paw-withdrawal latency according to the method described by Hargreaves et al. (1988), with minor modifications (Minett et al. 2011). Briefly, mice were left to acclimatise within an IITC Hargreaves stand for at least 1 hour. Three withdrawal responses were measured per animal. The mice were then left to resettle for at least 30 minutes before the drug treatment.
(§5) Mice received intraperitoneal injections of either 2 mg/kg naloxone or the equivalent volume of vehicle.

Nav1.7 null mutant mice = assay: Hargreaves test after naloxone in Nav1.7 null mutant mice; type: in vivo; conditions: 2 mg/kg naloxone intraperitoneal; Nav1.7 Advill tissue-specific null mutant mice
Method: The analgesia found in Nav1.7 null mutant mice was measured with the Hargreaves apparatus, which is a measure of acute thermal pain (Minett et al. 2011, Minett et al. 2012).
as §4, §5

[5] = system: murine acute thermal pain model; assay: Hargreaves test, murine acute thermal pain model, intraplantar drug treatment; conditions: 1 μg of each drug, 20 μl intraplantar injection, compared with control mice
Method: (§6) Mice received 20 μl intraplantar injections of either; • 1 μg Phlotoxin-1, • 1 μg Buprenorphine, • combined 1 μg Phlotoxin-1 and 1 μg Buprenorphine • or vehicle.

Nav1.7 [6] = molecular target: T1, Nav1.7 (Homo sapiens, UniProt Q15858); conditions: Escoubas et al. 2006, Bosmans et al. 2005; cited from earlier work
T1 sequence (Q15858 whole entry): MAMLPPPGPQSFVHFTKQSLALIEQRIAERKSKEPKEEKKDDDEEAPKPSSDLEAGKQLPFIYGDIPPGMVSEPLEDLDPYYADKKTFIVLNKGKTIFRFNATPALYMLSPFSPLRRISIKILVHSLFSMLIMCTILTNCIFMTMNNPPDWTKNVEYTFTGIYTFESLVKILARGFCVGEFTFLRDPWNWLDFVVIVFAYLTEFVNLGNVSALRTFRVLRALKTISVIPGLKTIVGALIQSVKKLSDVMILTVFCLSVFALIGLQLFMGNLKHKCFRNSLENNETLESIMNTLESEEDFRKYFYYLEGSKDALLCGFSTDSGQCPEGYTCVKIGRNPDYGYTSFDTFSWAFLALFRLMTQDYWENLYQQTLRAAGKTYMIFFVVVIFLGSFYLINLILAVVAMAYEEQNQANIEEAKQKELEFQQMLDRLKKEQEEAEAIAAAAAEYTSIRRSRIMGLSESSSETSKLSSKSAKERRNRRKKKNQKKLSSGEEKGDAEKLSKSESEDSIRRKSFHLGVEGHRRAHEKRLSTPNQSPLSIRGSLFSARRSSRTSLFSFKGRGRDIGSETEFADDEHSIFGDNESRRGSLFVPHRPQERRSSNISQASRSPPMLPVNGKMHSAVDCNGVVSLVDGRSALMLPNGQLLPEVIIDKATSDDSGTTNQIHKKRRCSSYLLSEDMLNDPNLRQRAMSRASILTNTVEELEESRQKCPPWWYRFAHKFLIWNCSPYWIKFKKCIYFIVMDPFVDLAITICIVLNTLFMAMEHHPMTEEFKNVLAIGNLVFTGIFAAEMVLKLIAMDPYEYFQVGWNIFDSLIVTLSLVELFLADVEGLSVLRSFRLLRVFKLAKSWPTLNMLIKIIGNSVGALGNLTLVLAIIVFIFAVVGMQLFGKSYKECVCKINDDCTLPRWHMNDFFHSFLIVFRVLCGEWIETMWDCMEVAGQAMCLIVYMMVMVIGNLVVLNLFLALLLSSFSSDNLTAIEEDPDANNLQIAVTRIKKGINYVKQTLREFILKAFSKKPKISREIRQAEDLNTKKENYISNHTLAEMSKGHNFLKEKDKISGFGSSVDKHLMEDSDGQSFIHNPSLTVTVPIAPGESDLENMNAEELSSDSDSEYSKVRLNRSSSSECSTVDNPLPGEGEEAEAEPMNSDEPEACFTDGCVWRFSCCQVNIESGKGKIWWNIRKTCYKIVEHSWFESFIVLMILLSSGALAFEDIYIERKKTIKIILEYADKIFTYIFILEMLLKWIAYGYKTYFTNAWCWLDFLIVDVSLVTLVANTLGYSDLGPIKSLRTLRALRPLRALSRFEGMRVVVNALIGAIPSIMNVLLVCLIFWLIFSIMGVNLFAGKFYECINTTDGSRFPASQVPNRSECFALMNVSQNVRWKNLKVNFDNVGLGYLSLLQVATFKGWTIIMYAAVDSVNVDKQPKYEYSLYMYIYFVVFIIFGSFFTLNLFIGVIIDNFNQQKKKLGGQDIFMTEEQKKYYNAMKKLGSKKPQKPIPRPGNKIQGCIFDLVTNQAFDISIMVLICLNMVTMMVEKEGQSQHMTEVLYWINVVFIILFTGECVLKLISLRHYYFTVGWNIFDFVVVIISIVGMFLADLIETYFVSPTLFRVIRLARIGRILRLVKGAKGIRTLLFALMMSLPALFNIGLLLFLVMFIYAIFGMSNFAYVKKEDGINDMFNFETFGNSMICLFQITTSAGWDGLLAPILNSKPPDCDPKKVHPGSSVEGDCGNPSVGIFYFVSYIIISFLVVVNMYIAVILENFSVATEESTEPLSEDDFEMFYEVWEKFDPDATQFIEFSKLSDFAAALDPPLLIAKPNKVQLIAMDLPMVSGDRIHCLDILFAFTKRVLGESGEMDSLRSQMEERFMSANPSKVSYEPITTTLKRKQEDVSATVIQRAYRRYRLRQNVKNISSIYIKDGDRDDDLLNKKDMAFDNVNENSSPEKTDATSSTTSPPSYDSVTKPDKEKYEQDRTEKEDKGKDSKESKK

[7] = system: inflammatory hyperalgesia in a murine thermal pain model; assay: Complete Freund's Adjuvant thermal hyperalgesia, Hargreaves test (Example 2); type: in vivo, mice; conditions: intraplantar 1 microgram each; three days post CFA
Method: Baseline thermal thresholds were recorded for each animal before 20 μl Complete Freund's Adjuvant (Sigma) was injected subcutaneously into the plantar aspect of a hind paw using a Hamilton syringe and 30 G needle. Three days post Complete Freund's Adjuvant injections thermal threshold were measured before to drug treatment.
as §6

Nav1.7 [8] = molecular target: T1, Nav1.7; assay: Whole cell voltage clamp of Nav1.7 activity in transfected HEK293 cell line; type: cell-based; design: expressed in transfected cells; host or cells: HEK293; conditions: 0.25 μM, HEK293 cell line transfected with human Nav1.7
Method: Specifically, HEK293 (ATCC) cells are transfected with Nav1.7 or other sodium channel cDNA constructs in a vector co-expressing a fluorescent marker protein using lipofectamine 2000 or other transfection method and plated onto poly-d-lysine coated coverslips. All recordings are done 24-72 hours after transfection
Whole-cell voltage clamp recordings are performed using an Axopatch 200 B amplifier at room temperature using standard techniques. Extracellular solution comprised (mM) NaCl 145, KCl 4, CaCl2 1.8, MgCl2 1, HEPES 10, (pH 7.35 with NaOH); intracellular (mM) CsCl 150, EGTA 10, HEPES 10, (pH 7.35 with CsOH). […] Tau of inactivation was measured by fitting a standard exponential function to the decaying current and persistent current was determined by measuring the current 20 ms after the start of the voltage step and expressing it as a percentage of the transient current in the same step. To assess voltage dependence of activation current-voltage families were obtained and peak sodium currents measured at each voltage. Channel conductance was calculated using the formula GNa=I/(V−Vrev) where GNa is sodium conductance, I is peak current, V is the voltage step and Vrev is the measured reversal potential which was determined for each cell by fitting a straight line through the linear portion of the current-voltage relationship. […]

Nav1.7 [9] = molecular target: T1, Nav1.7; conditions: Yang et al. 2013; read-out: IC50 for inhibition of Nav1.7; cited from earlier work
[10] = scale ranging from 0-100, naloxone

C=CCN1CC[C@]23c4c5ccc(O)c4O[C@H]2C(=O)CC[C@@]3(O)[C@H]1C5 [naloxone]
tactile sensitivity [1]: remained unchanged
sensitisation to noxious stimuli (phasic and tonic radiant heat) (healthy human controls): no effect
perceived intensity rating of tonic stimuli (visual analog scale) versus baseline and saline (Nav1.7 null mutant human [2]; 42, 45 and 48° C. for 20 sec, naloxone): rated higher
EEG alpha and beta power during tonic radiant heat (Nav1.7 null mutant human [2]; naloxone): reduced
EEG low and high gamma induced oscillations relative to baseline and saline (Nav1.7 null mutant human [2]; naloxone): enhancement
intensity ratings of tonic radiant heat on visual analogue scale (Example 14) (Nav1.7 null mutant human [2]; tonic radiant heat over 25 seconds, Nav1.7 null human): strongly increased
probability of detecting 9-ms radiant heat pulses (Nav1.7 null mutant human [3]; bolus of 6 mg naloxone followed by infusion at 0.1 mg/minute, Nav1.7 null mutant): 80%
detection rate of laser pulses (Nav1.7 null mutant human [3]; fluency 0.6 j/mm2, forearm, naloxone, none perceived at baseline and saline): 80%
detected stimuli felt as pinprick (Nav1.7 null mutant human [3]; naloxone): 37.5%
perceived intensity rating of laser pulses, mean (Nav1.7 null mutant human [3]; [10]): 6.1
perceived intensity rating of laser pulses, range (Nav1.7 null mutant human [3]; [10]): 0.5-15
trials in which pinprick stimuli were reported "surprisingly uncomfortable" [4]: 66%
reduction of pinprick detection thresholds relative to saline ([4]; forearm radiant heat): 1.7 °C
reduction of warmth detection thresholds relative to saline ([4]; forearm radiant heat): 7 °C
effect on pain thresholds, Hargreaves test (normal mice): does not alter pain thresholds
effect on the analgesia of Nav1.7 null mutant mice, Hargreaves test (Nav1.7 null mutant mice): partially reverses

Phlotoxin-1
analgesia in the Hargreaves test (paw-withdrawal latency) [5]: no analgesia
selective affinity for Nav1.7 compared to other expressed sodium channels (Nav1.7 [6]): sub-micromolar
effect on inflammatory (CFA) thermal hyperalgesia, Hargreaves test [7]: much lesser effects
inhibition of functional Nav1.7 voltage-gated channel activity (Nav1.7 [8]): completely inhibits

μ-SLPTX-Ssm6a
IC50 (Nav1.7 [9]): ~25 nM
